Positions of bridges follow the written chain, without caps; N, C: chain ends. Non-standard residues stand in square brackets, D forms with d. Residues, ends and D or L forms follow the SMILES beside them. Phe(4-tBu) = CC(C)(C)c1ccc(C[C@H](N)C(=O)O)cc1; Phe(4-F) = N[C@@H](Cc1ccc(F)cc1)C(=O)O; R8 = C=CCCCCCC[C@@](C)(N)C(=O)O; Cha = N[C@@H](CC1CCCCC1)C(=O)O; αMeL = CC(C)C[C@](C)(N)C(=O)O; hLeu = CC(C)CC[C@H](N)C(=O)O; S5 = C=CCCC[C@](C)(N)C(=O)O; Aib = CC(C)(N)C(=O)O
Assays:
Bcl-2 = Bcl-2 (Homo sapiens, UniProt P10415); assay: Ki determination for Bcl-2 (BCL-2 family binding spectrum); settings: read-out: Ki BCL-2
Sequence of Bcl-2 (P10415 whole entry, species assumed): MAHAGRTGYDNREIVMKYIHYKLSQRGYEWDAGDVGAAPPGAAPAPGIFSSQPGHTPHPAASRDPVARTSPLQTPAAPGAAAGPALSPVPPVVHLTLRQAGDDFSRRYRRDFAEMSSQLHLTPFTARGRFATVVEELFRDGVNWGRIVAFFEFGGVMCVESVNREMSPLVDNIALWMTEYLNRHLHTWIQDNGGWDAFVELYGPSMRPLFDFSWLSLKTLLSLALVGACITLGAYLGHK
Excerpt: (§1) To assess the binding and affinity of compounds that antagonize the interaction between a peptide and an acceptor protein, a fluorescence polarization assay (FPA) utilizing a fluoresceinated peptidomimetic macrocycle derived from a peptidomimetic precursor sequence is used, for example. The FPA technique measures the molecular orientation and mobility using polarized light and fluorescent tracer. […] A compound that antagonizes the interaction between the fluoresceinated peptidomimetic macrocycle and an acceptor protein will be detected in a competitive binding FPA experiment.
(§2) For example, putative antagonist compounds (1 nM to 1 mM) and a fluoresceinated peptidomimetic macrocycle (25 nM) are incubated with the acceptor protein (50 nM) in binding buffer (140 mM NaCl, 50 mM Tris-HCL, pH 7.4) for 30 minutes at room temperature. Antagonist binding activity is measured, for example, by fluorescence polarization on a luminescence spectrophotometer (e.g. Perkin-Elmer LS50B). Kd values may be determined by nonlinear regression analysis using, for example, Graphpad Prism software (GraphPad Software, Inc., San Diego, Calif.).

Bcl-xL = Bcl-xL (Homo sapiens, UniProt Q07817); assay: Ki determination for Bcl-xL (BCL-2 family binding spectrum); settings: read-out: Ki BCL-XL
Sequence of Bcl-xL (Q07817 whole entry, species assumed): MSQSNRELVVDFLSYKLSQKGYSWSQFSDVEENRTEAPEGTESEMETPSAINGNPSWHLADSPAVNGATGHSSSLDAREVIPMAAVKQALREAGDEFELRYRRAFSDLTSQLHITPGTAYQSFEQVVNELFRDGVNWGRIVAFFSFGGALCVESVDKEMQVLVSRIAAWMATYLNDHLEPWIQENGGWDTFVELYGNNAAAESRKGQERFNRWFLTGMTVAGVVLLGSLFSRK
Excerpt: as §1, §2

Mcl-1 = Mcl-1 (Homo sapiens, UniProt Q07820); assay: Ki determination for Mcl-1 (BCL-2 family binding spectrum); settings: read-out: Ki MCL-1
Sequence of Mcl-1 (Q07820 whole entry, species assumed): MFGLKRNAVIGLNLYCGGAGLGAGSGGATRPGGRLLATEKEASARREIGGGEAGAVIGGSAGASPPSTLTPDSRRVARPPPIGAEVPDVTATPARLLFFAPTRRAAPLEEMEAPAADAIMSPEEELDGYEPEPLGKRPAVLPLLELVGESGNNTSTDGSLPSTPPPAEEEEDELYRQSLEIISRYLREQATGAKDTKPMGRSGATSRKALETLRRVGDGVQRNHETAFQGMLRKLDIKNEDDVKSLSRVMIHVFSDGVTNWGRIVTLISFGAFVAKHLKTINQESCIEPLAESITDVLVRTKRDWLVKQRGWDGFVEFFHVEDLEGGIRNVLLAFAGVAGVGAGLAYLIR
Outline: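 Competitive fluorescence polarization assay in which compounds displace a fluoresceinated peptidomimetic macrocycle tracer from Mcl-1. Affinity constants were obtained by nonlinear regression.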

| Ki (Bcl-2) [nM] | Ki (Bcl-xL) [nM] | Ki (Mcl-1) [nM] | SMILES |
| --- | --- | --- | --- |
| 23.5 |  |  | CC[C@H](C)[C@H](NC(C)=O)C(=O)N[C@@H](Cc1c[nH]c2ccccc12)C(=O)N[C@H](C(=O)N[C@@H](C)C(=O)N[C@@H](CCC(N)=O)C(=O)N[C@@H](CCC(=O)O)C(=O)N[C@@H](CC(C)C)C(=O)N[C@@H](CCCNC(=N)N)C(=O)N[C@]1(C)CCCCCCC=CCCC[C@@](C)(C(=O)N[C@@H](Cc2ccc(O)cc2)C(=O)N[C@@H](Cc2ccc(O)cc2)C(=O)N[C@@H](C)C(=O)N[C@@H](CCCNC(=N)N)C(=O)N[C@@H](CCCNC(=N)N)C(N)=O)NC(=O)[C@H](CC(N)=O)NC(=O)[C@H](Cc2ccccc2)NC(=O)[C@H](CCC(=O)O)NC(=O)[C@H](CC(=O)O)NC(=O)CNC(=O)[C@H]([C@@H](C)CC)NC1=O)[C@@H](C)CC [compound 1629] |
| > 1000 |  |  | CC[C@H](C)[C@H](NC(C)=O)C(=O)N[C@@H](Cc1c[nH]c2ccccc12)C(=O)N[C@@H](Cc1ccc(C(C)(C)C)cc1)C(=O)N[C@@H](C)C(=O)N[C@@H](CCC(N)=O)C(=O)N[C@@H](C)C(=O)N[C@@H](CC(C)C)C(=O)N[C@@H](CCCNC(=N)N)C(=O)N[C@]1(C)CCCCCCC=CCCC[C@@](C)(C(=O)N[C@@H](Cc2ccc(O)cc2)C(=O)N[C@@H](Cc2ccc(O)cc2)C(=O)N[C@@H](C)C(N)=O)NC(=O)[C@H](CC(N)=O)NC(=O)[C@H](Cc2ccccc2)NC(=O)[C@H](C)NC(=O)[C@H](CC(=O)O)NC(=O)CNC(=O)[C@H]([C@@H](C)CC)NC1=O [compound 1684] (Ac-IW[Phe(4-tBu)]AQALR[R8]IGDAFN[S5]YYA-NH2; staple 9-16) |
| > 1000 |  |  | CC[C@H](C)[C@H](NC(C)=O)C(=O)N[C@@H](Cc1c[nH]c2ccccc12)C(=O)N[C@H](C(=O)N[C@@H](C)C(=O)N[C@@H](CCC(N)=O)C(=O)N[C@@H](C)C(=O)N[C@@H](CC1CCCCC1)C(=O)N[C@@H](CCCNC(=N)N)C(=O)N[C@]1(C)CCCCCCC=CCCC[C@@](C)(C(=O)N[C@@H](Cc2ccc(O)cc2)C(=O)N[C@@H](Cc2ccc(O)cc2)C(=O)N[C@@H](C)C(N)=O)NC(=O)[C@H](CC(N)=O)NC(=O)[C@H](Cc2ccccc2)NC(=O)[C@H](C)NC(=O)[C@H](CC(=O)O)NC(=O)CNC(=O)[C@H]([C@@H](C)CC)NC1=O)[C@@H](C)CC [compound 1687] (Ac-IWIAQA[Cha]R[R8]IGDAFN[S5]YYA-NH2; staple 9-16) |
|  | 8.4 | 5.2 | CC[C@H](C)[C@H](NC(=O)[C@H](Cc1c[nH]c2ccccc12)NC(=O)[C@](C)(CC(C)C)NC(C)=O)C(=O)N[C@@H](C)C(=O)N[C@@H](CCC(N)=O)C(=O)N[C@@H](C)C(=O)N[C@@H](CC(C)C)C(=O)N[C@@H](CCCNC(=N)N)C(=O)N[C@]1(C)CCCCCCC=CCCC[C@@](C)(C(=O)N[C@@H](Cc2ccc(O)cc2)C(=O)N[C@@H](Cc2ccc(O)cc2)C(=O)N[C@@H](C)C(N)=O)NC(=O)[C@H](CC(N)=O)NC(=O)[C@H](Cc2ccccc2)NC(=O)[C@H](C)NC(=O)[C@H](CC(=O)O)NC(=O)CNC(=O)[C@H]([C@@H](C)CC)NC1=O [compound 1705] (Ac-[αMeL]WIAQALR[R8]IGDAFN[S5]YYA-NH2; staple 9-16) |
|  | 154 | 21.2 | CC[C@H](C)[C@H](NC(C)=O)C(=O)N[C@@H](Cc1c[nH]c2ccccc12)C(=O)N[C@H](C(=O)N[C@@H](C)C(=O)N[C@@H](CCC(N)=O)C(=O)N[C@@H](C)C(=O)N[C@@H](CC(C)C)C(=O)N[C@@H](CCCNC(=N)N)C(=O)N[C@]1(C)CCCCCCC=CCCC[C@@](C)(C(=O)N[C@@H](Cc2ccc(O)cc2)C(=O)N[C@@H](Cc2ccc(O)cc2)C(=O)N[C@@H](C)C(N)=O)NC(=O)[C@H](CC(N)=O)NC(=O)[C@H](Cc2ccc(C(C)(C)C)cc2)NC(=O)[C@H](C)NC(=O)[C@H](CC(=O)O)NC(=O)CNC(=O)[C@H]([C@@H](C)CC)NC1=O)[C@@H](C)CC [compound 1745] (Ac-IWIAQALR[R8]IGDA[Phe(4-tBu)]N[S5]YYA-NH2; staple 9-16) |
|  | 25.9 |  | CC[C@H](C)[C@H](NC(C)=O)C(=O)N[C@@H](Cc1c[nH]c2ccccc12)C(=O)N[C@H](C(=O)N[C@@H](C)C(=O)N[C@@H](C)C(=O)N[C@@H](C)C(=O)N[C@@H](CC(C)C)C(=O)N[C@@H](CCCNC(=N)N)C(=O)N[C@]1(C)CCCCCCC=CCCC[C@@](C)(C(=O)N[C@@H](Cc2ccc(O)cc2)C(=O)N[C@@H](Cc2ccc(O)cc2)C(=O)N[C@@H](C)C(N)=O)NC(=O)[C@H](CC(=O)O)NC(=O)[C@H](Cc2ccccc2)NC(=O)[C@H](C)NC(=O)[C@H](CC(=O)O)NC(=O)CNC(=O)[C@H]([C@@H](C)CC)NC1=O)[C@@H](C)CC [compound 1748] (Ac-IWIAAALR[R8]IGDAFD[S5]YYA-NH2; staple 9-16) |
|  | 36.3 | 8 | CC[C@H](C)[C@H](NC(C)=O)C(=O)N[C@@H](Cc1c[nH]c2ccccc12)C(=O)N[C@H](C(=O)N[C@@H](C)C(=O)N[C@@H](C)C(=O)N[C@@H](C)C(=O)N[C@@H](CC(C)C)C(=O)N[C@@H](CCCNC(=N)N)C(=O)N[C@]1(C)CCCCCCC=CCCC[C@@](C)(C(=O)N[C@@H](Cc2ccc(O)cc2)C(=O)N[C@@H](Cc2ccc(O)cc2)C(=O)N[C@@H](C)C(N)=O)NC(=O)[C@H](Cc2c[nH]cn2)NC(=O)[C@H](Cc2ccccc2)NC(=O)[C@H](C)NC(=O)[C@H](CC(=O)O)NC(=O)CNC(=O)[C@H]([C@@H](C)CC)NC1=O)[C@@H](C)CC [compound 1752] (Ac-IWIAAALR[R8]IGDAFH[S5]YYA-NH2; staple 9-16) |
|  | 9 |  | CC[C@H](C)[C@H](NC(C)=O)C(=O)N[C@@H](Cc1c[nH]c2ccccc12)C(=O)N[C@H](C(=O)N[C@@H](C)C(=O)N[C@@H](CCC(N)=O)C(=O)N[C@@H](C)C(=O)N[C@@H](CC(C)C)C(=O)N[C@@H](CCCNC(=N)N)C(=O)N[C@]1(C)CCCCCCC=CCCC[C@@](C)(C(=O)N[C@@H](Cc2ccc(O)cc2)C(=O)N[C@@H](CC(C)C)C(=O)N[C@@H](C)C(N)=O)NC(=O)[C@H](CC(N)=O)NC(=O)[C@H](Cc2ccccc2)NC(=O)[C@H](C)NC(=O)[C@H](CC(=O)O)NC(=O)CNC(=O)[C@H]([C@@H](C)CC)NC1=O)[C@@H](C)CC [compound 1755] (Ac-IWIAQALR[R8]IGDAFN[S5]YLA-NH2; staple 9-16) |
|  | > 1000 |  | CC[C@H](C)[C@H](NC(C)=O)C(=O)N[C@@H](Cc1c[nH]c2ccccc12)C(=O)N[C@H](C(=O)N[C@@H](C)C(=O)N[C@@H](CCC(N)=O)C(=O)N[C@@H](C)C(=O)N[C@@H](CC(C)C)C(=O)N[C@@H](CCCNC(=N)N)C(=O)N[C@]1(C)CCCCCCC=CCCC[C@@](C)(C(=O)N[C@@H](Cc2ccc(O)cc2)C(=O)N[C@@H](Cc2ccc(O)cc2)C(=O)NC(C)(C)C(N)=O)NC(=O)[C@H](CC(N)=O)NC(=O)[C@H](Cc2ccccc2)NC(=O)[C@H](C)NC(=O)[C@H](CC(=O)O)NC(=O)CNC(=O)[C@H]([C@@H](C)CC)NC1=O)[C@@H](C)CC [compound 1770] (Ac-IWIAQALR[R8]IGDAFN[S5]YY[Aib]-NH2; staple 9-16) |
|  | 9 |  | CC[C@H](C)[C@H](NC(=O)[C@H](Cc1c[nH]c2ccccc12)NC(=O)[C@H](C)NC(C)=O)C(=O)N[C@@H](C)C(=O)N[C@@H](C)C(=O)N[C@@H](C)C(=O)N[C@@H](CC(C)C)C(=O)N[C@@H](CCCNC(=N)N)C(=O)N[C@]1(C)CCCCCCC=CCCC[C@@](C)(C(=O)N[C@@H](C)C(=O)N[C@@H](Cc2ccc(F)cc2)C(=O)N[C@@H](C)C(N)=O)NC(=O)[C@H](CC(N)=O)NC(=O)[C@H](Cc2ccccc2)NC(=O)[C@H](C)NC(=O)[C@H](CC(=O)O)NC(=O)CNC(=O)[C@H](CCC(C)C)NC1=O [compound 1780] (Ac-AWIAAALR[R8][hLeu]GDAFN[S5]A[Phe(4-F)]A-NH2; staple 9-16) |
|  | > 1000 | > 1000 | CC[C@H](C)[C@H](NC(C)=O)C(=O)N[C@@H](Cc1c[nH]c2ccccc12)C(=O)N[C@H](C(=O)N[C@@H](C)C(=O)N[C@@H](CCC(N)=O)C(=O)N[C@@H](C)C(=O)N[C@@H](C)C(=O)N[C@@H](CCCNC(=N)N)C(=O)N[C@]1(C)CCCCCCC=CCCC[C@@](C)(C(=O)N[C@@H](Cc2ccc(F)cc2)C(=O)N[C@@H](Cc2ccc(F)cc2)C(=O)N[C@@H](C)C(N)=O)NC(=O)[C@H](CC(N)=O)NC(=O)[C@H](Cc2ccccc2)NC(=O)[C@H](C)NC(=O)[C@H](CC(=O)O)NC(=O)CNC(=O)[C@H](CCC(C)C)NC1=O)[C@@H](C)CC [compound 1781] (Ac-IWIAQAAR[R8][hLeu]GDAFN[S5][Phe(4-F)][Phe(4-F)]A-NH2; staple 9-16) |

| SMILES | Ki (Bcl-2) [nM] | Ki (Bcl-xL) [nM] | Ki (Mcl-1) [nM] |
| --- | --- | --- | --- |
| CC[C@H](C)[C@H](NC(C)=O)C(=O)N[C@@H](Cc1c[nH]c2ccccc12)C(=O)N[C@H](C(=O)N[C@@H](C)C(=O)N[C@@H](CCC(N)=O)C(=O)N[C@@H](C)C(=O)N[C@@H](CC(C)C)C(=O)N[C@@H](CCCNC(=N)N)C(=O)N[C@]1(C)CCCCCCC=CCCC[C@@](C)(C(=O)N[C@@H](Cc2ccc(O)cc2)C(=O)N[C@@H](Cc2ccc(F)cc2)C(=O)N[C@@H](C)C(N)=O)NC(=O)[C@H](CC(N)=O)NC(=O)[C@H](Cc2ccccc2)NC(=O)[C@H](C)NC(=O)[C@H](CC(=O)O)NC(=O)CNC(=O)[C@H](CCC(C)C)NC1=O)[C@@H](C)CC [compound 1777] (Ac-IWIAQALR[R8][hLeu]GDAFN[S5]Y[Phe(4-F)]A-NH2; staple 9-16) |  | 13 | 27 |
